Source: patent US20240002350A1, “PROTEIN AND LIPID THERAPEUTIC TARGETS” (UNIVERSITY OF PITTSBURGH-OF THE COMMONWEALTH SYSTEM OF …, priority 2020, published 2024)

These molecules were tested on 15LOX/PEBP1 (assay: Potency of 15LOX/PEBP1 inhibitors with anti-ferroptotic effect (Table 1)). Details: not given.
Type: cell-based
Text: Development and testing of new compounds that inhibit 15LOX/PEBP1 complex activity. A combination of computational and experimental studies are used. […] Computer modeling considers specific features of organization of 15LOX/PEBP1 complexes and positioning of AA-PE as well as regio-specific oxygenation of AA-residues at 15th carbon. […] It has been shown that: i) binding interface of 15LOX in 15LOX/PEBP1 complex includes a helix on 15LOX (α2) and kinase binding epitope (D144, H145, R146) on PEBP1 (FIG. 8); and ii) interfacial interactions play a pivotal role in allosterically altering conformational dynamics of 15LOX in complex, and its substrate specificity. Analysis of change in access to catalytic site upon PEBP1 binding, using elastic network models indicates needed sites at 15LOX/PEBP1 binding interface. Dynamics simulations are also performed, for 15LOX alone and 15LOX/PEBP1 complex. An effective inhibitor, NCG-01, with in vivo activity has been indicated. Several other 15LOX/PEBP1 inhibitors with anti-ferroptotic effect (FIG. 9) have been identified. To test the effectiveness of compounds identified from the computational screen, RSL3 and mechanical stretch models with LDH and PI assays as a primary outcome are performed. The compounds that inhibit cell death by at least 50% are then evaluated for their effects on AA-PE and AA oxidation by 15LOX/PEBP1 complex and 15LOX alone, respectively, by LC-MS. Evaluation of the effect of compounds in suppressing AA-PE-OOH formation in cells upon proferroptotic stimuli is also performed.

Row | Structure (SMILES) | Potency
1 | NC(=O)c1ccc(CSc2nc(-c3ccccc3)cn2-c2cccc(F)c2)cc1 [Compound 50, 4-(((1-(3-fluorophenyl)-4-phenyl-1H-imidazol-2-yl)thio)methyl)benzamide] | + (+ > 1 μM)
2 | Fc1cccc(-n2cc(-c3ccccc3)nc2SCc2ccc(OC(F)F)cc2)c1 [Compound 51, 2-((4-(difluoromethoxy)benzyl)thio)-1-(3-fluorophenyl)-4-phenyl-1H-imidazole] | + (+ > 1 μM)
3 | Fc1cccc(-n2cc(-c3ccccc3)nc2SCc2ccc(C(F)F)cc2)c1 [Compound 52, 2-((4-(difluoromethyl)benzyl)thio)-1-(3-fluorophenyl)-4-phenyl-1H-imidazole] | + (+ > 1 μM)
4 | CC(C)(C)OC(=O)Nc1ccc(CSc2nc(-c3ccccc3)cn2-c2cccc(F)c2)cc1 [Compound 53, tert-butyl (4-(((1-(3-fluorophenyl)-4-phenyl-1H-imidazol-2-yl)thio)methyl)phenyl)carbamate] | + (+ > 1 μM)
5 | CC(Sc1nc(-c2ccccc2)cn1-c1cccc(F)c1)c1ccc(C(F)(F)F)cc1 (centres unmarked) [Compound 54, 1-(3-fluorophenyl)-4-phenyl-2-((1-(4-(trifluoromethyl)phenyl)ethyl)thio)-1H-imidazole] | + (+ > 1 μM)
6 | N#Cc1ccc(CSc2nc(-c3ccccc3)cn2-c2cccc(F)c2)cc1 [Compound 55, 4-(((1-(3-fluorophenyl)-4-phenyl-1H-imidazol-2-yl)thio)methyl)benzonitrile] | + (+ > 1 μM)
7 | N#Cc1ccc(CNc2nc(-c3ccccc3)cn2-c2cccc(F)c2)cc1 [Compound 56, 4-(((1-(3-fluorophenyl)-4-phenyl-1H-imidazol-2-yl)amino)methyl)benzonitrile] | ++ (++ = 101-1000 nM)
8 | Cc1cccc(CNc2nc(-c3ccccc3)cn2-c2cccc(F)c2)c1 [Compound 57, 1-(3-fluorophenyl)-N-(3-methylbenzyl)-4-phenyl-1H-imidazol-2-amine] | ++ (++ = 101-1000 nM)
9 | Fc1cccc(-n2cc(-c3ccccc3)nc2NCc2cccc(C(F)(F)F)c2F)c1 [Compound 58, N-(2-fluoro-3-(trifluoromethyl)benzyl)-1-(3-fluorophenyl)-4-phenyl-1H-imidazol-2-amine] | ++ (++ = 101-1000 nM)
10 | Fc1cccc(-n2cc(-c3ccccc3)nc2NCc2ccc(Cl)cc2)c1 [Compound 59, N-(4-chlorobenzyl)-1-(3-fluorophenyl)-4-phenyl-1H-imidazol-2-amine] | ++ (++ = 101-1000 nM)
11 | Fc1cccc(-n2cc(-c3ccccc3)nc2NCc2ccccc2)c1 [Compound 61, N-benzyl-1-(3-fluorophenyl)-4-phenyl-1H-imidazol-2-amine] | ++ (++ = 101-1000 nM)
12 | COc1cccc(CNc2nc(-c3ccccc3)cn2-c2cccc(F)c2)c1 [Compound 62, 1-(3-fluorophenyl)-N-(3-methoxybenzyl)-4-phenyl-1H-imidazol-2-amine] | ++ (++ = 101-1000 nM)
13 | Fc1cccc(-n2cc(-c3ccccc3)nc2NCc2cccc(C(F)(F)F)c2)c1 [Compound 63, 1-(3-fluorophenyl)-4-phenyl-N-(3-(trifluoromethyl)benzyl)-1H-imidazol-2-amine] | ++ (++ = 101-1000 nM)
14 | Fc1cccc(-n2cc(-c3ccccc3)nc2NCc2ccc(F)c(F)c2)c1 [Compound 64, N-(3,4-difluorobenzyl)-1-(3-fluorophenyl)-4-phenyl-1H-imidazol-2-amine] | ++ (++ = 101-1000 nM)
15 | Fc1cccc(-n2cc(-c3ccc(Br)cc3)nc2SCc2ccc(C3(C(F)(F)F)N=N3)cc2)c1 [Compound 65, 4-(4-bromophenyl)-1-(3-fluorophenyl)-2-((4-(3-(trifluoromethyl)-3H-diazirin-3-yl)benzyl)thio)-1H-imidazole] | + (+ > 1 μM)
16 | Fc1cccc(-n2cc(-c3ccccc3)nc2NCc2ccc(C(F)(F)F)c(Br)c2)c1 [Compound 66, N-(3-bromo-4-(trifluoromethyl)benzyl)-1-(3-fluorophenyl)-4-phenyl-1H-imidazol-2-amine] | ++ (++ = 101-1000 nM)
17 | COc1cc(CNc2nc(-c3ccccc3)cn2-c2cccc(F)c2)ccc1C(F)(F)F [Compound 67, 1-(3-fluorophenyl)-N-(3-methoxy-4-(trifluoromethyl)benzyl)-4-phenyl-1H-imidazol-2-amine] | ++ (++ = 101-1000 nM)
18 | Fc1cccc(-n2cc(-c3ccccc3)nc2NCc2ccc(C(F)(F)F)c(Cl)c2)c1 [Compound 68, N-(3-chloro-4-(trifluoromethyl)benzyl)-1-(3-fluorophenyl)-4-phenyl-1H-imidazol-2-amine] | ++ (++ = 101-1000 nM)
19 | Cc1cc(CNc2nc(-c3ccccc3)cn2-c2cccc(F)c2)ccc1C(F)(F)F [Compound 69, 1-(3-fluorophenyl)-N-(3-methyl-4-(trifluoromethyl)benzyl)-4-phenyl-1H-imidazol-2-amine] | ++ (++ = 101-1000 nM)

These molecules were tested on PND17 rats (assay: Controlled cortical impact (CCI) TBI model in PND17 rats). Details: 50 mg/kg i.p. 15 min after CCI.
Type: in vivo, rat
Procedure: (§1) Time course studies (0, 4, 8, 24 and 72 h) of TBI-induced changes in i) PE oxidation (oxidative lipidomics); ii) expression and activity of 15LOX, PEBP1, ACSL4, LPCAT3, iPLA2β and GPX4 (western blot); iii) formation of 15LOX/PEBP1 complexes (dual object recognition); and iv) GSH levels (fluorescent assay) will be performed as follows. An established model of in vitro TBI, severe mechanical stretch injury in primary cortical neurons, can be used. In brief, cortical neurons are cultured on 0.05% poly-D-lysine hydrobromide coated silicone substrate wells, and subjected to a computer controlled quantifiable mechanical insult by displacing the silicone substrate over a hollowed platform. In vivo TBI is induced by severe CCI (6-mm impactor tip, velocity of ±0.2 m/secs, deformation depth of 2.5 mm, impact duration of 50 msecs) to left parietal cortex in male and female PND 17 rats. To maximize rigor and reproducibility, animals are assigned to either sham (anesthesia and craniotomy) or CCI groups by block randomization. To ensure appropriate sample size for robustness, power analyses are performed in each experimental context. A sample size of 5 is preferred to detect a 25% difference in PE-OOH between CCI and control based on standard deviation observed in the experiments with an alpha of 0.05 and power of 0.80. Group assignments are blinded to the investigators who perform biochemical and histological endpoints. Statistical differences are analyzed using one-way ANOVA with post-hoc comparisons between groups if overall p<0.05 as appropriate. To address biological variability, both sexes are included.
Histological outcome assessment. Brains are quantitatively analyzed for total number of specific cell types and lesion volume using unbiased stereology as described. Diagnostic of ferroptosis in vivo are: 1) accumulation of doubly and triply oxygenated AA-PE species; 2) increased ACSL4; 3) decreased GPX4 activity or deficiency of GSH; 4) increased activity and expression of 15LOX; and 5) high levels of 15LOX-PEBP1 co-localization detectable by dual object recognition. […] TUNEL staining is used to quantify cell death. TUNEL is commonly used to detect apoptotic cells. However, cells undergoing other types of regulated death, including ferroptosis, are also TUNEL positive. In order to determine the apoptotic cell death, staining with cleaved caspase-3 antibody is performed.
Neurocognitive function is assessed by novel object recognition (NOR) and MWM (Morris Water Maze) tests. For NOR testing, rat is placed in a small enclosure with two similar objects and allowed to explore for a 35 min habituation phase. […] Percent time exploring original vs. novel object is recorded (2 min max). […] Visible platform performance and memory retention in a single probe trial on d17 are assessed. […]

Row | Structure (SMILES) | AA-PE oxidation | functional deficits in MWM task | hippocampal TUNEL positivity
20 | O=c1cc(-c2ccccc2)oc2cc(O)c(O)c(O)c12 [baicalein] | decreased | attenuated | attenuated

Same assay, conditions: i.c.v. administration after CCI, 24 h post-CCI

Row | Structure (SMILES) | neurodegeneration assessed by FJB positivity
21 | CCC/C=C/C/C=C/C=C/C=N/NN=O [Triacsin C] | attenuated neurodegeneration

The molecules below were run on neurons (assay: Severe mechanical stretch injury in neurons). Details: 3-4 psi; Fer-1 0.4 μM, Triacsin C 10 μM, baicalein 5 μM.
Type: cell-based, rat
Procedure: Mean+SD, N=4/group, *p<0.05 vs 0 h. […] Mean±SD, N=3-4/group, *p<0.05 vs control, #p<0.05 vs vehicle. […] Mean+SD, N=4/group, *p<0.05 vs vehicle.
as §1

Row | Structure (SMILES) | cell death after severe mechanical stretch injury
22 | CCOC(=O)c1ccc(NC2CCCCC2)c(N)c1 [Fer-1] | rescued
23 | CCC/C=C/C/C=C/C=C/C=N/NN=O [Triacsin C] | rescued
24 | O=c1cc(-c2ccccc2)oc2cc(O)c(O)c(O)c12 [baicalein] | rescued
